# Measured values reported in patent publication US8785488B2 (Exelixis Patent Company LLC, priority 2009, dated 2014).
# Experiments:
# [1] = target: T1, human TGR5 (h-TGR5) (Homo sapiens, UniProt Q8TDU6); experiment: TGR5/CRE-Luciferiase Assay (HEK 293 hTGR5/CRE-Luc cells); assay type: cell-based; conditions: h-TGR5 CRE-Luc EC50, Table 1; read-out: CRE-Luc (EC50)
# T1 construct: expressed in transfected cells
# T1 sequence (Q8TDU6 1-330): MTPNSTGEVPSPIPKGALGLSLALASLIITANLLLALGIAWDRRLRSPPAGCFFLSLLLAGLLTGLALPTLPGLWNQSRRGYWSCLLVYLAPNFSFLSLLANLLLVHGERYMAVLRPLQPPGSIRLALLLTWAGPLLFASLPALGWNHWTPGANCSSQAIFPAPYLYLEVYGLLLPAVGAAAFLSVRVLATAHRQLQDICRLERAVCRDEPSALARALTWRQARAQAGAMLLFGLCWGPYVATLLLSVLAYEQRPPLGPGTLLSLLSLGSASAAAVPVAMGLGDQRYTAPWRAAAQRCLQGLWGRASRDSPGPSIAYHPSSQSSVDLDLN
# In short: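 HEK293 cells stably carrying hTGR5 and a CRE-luciferase reporter were exposed to serially diluted compounds (diluted in DMEM with 5% DMSO) for 6 h. Cells were then lysed in luciferase buffer, luminescence was read, and EC50 values were derived from dose-response curves.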
# [2] = target: T2, h-TGR5 (Homo sapiens, UniProt Q8TDU6); experiment: TGR5 cAMP Assay using Cisbio cAMP Dynamic2 htrf kit (hTGR5CRE-luc HEK 293 cells); assay type: cell-based; conditions: h-TGR5 cAMP EC50, Table 1; read-out: cAMP (EC50)
# T2 construct: expressed in transfected cells
# T2 sequence (Q8TDU6 1-330): T1 sequence (Q8TDU6 1-330)
# In short: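 […], 4000 hTGR5CRE-luc HEK 293 cells per well, with 0.5 mM IBMX and d2-cAMP, were incubated 30 min at room temperature with compounds in 8-point half-log series, in quadruplicate.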
EC50 [1],EC50 [2],SMILES
100 to 1000 nM,100 to 1000 nM,"CC(C)(c1ccc(Cl)c(Cl)c1)c1cnc(SCc2ccc(C(=O)O)c(Cl)c2)n1-c1ccc(F)cc1 [2-chloro-4-[({5-[1-(3,4-dichlorophenyl)-1-methylethyl]-1-(4-fluorophenyl)-1H-imidazol-2-yl}thio)methyl]benzoic acid]"
100 to 1000 nM,100 to 1000 nM,"CC(C)(c1ccc(S(N)(=O)=O)c(Cl)c1)c1cnc(SCc2ccc(Cl)c(-c3nnn[nH]3)c2)n1-c1ccc(F)c(F)c1 [2-chloro-4-{1-[2-({[4-chloro-3-(1H-tetrazol-5-yl)phenyl]methyl}thio)-1-(3,4-difluorophenyl)-1H-imidazol-5-yl]-1-methylethyl}benzenesulfonamide]"
100 to 1000 nM,100 to 1000 nM,CC(C)(c1ccc(S(N)(=O)=O)c(Cl)c1)c1cnc(SCc2ccc(Cl)c(-c3nnn[nH]3)c2)n1-c1ccc(F)cc1 [2-chloro-4-{1-[2-({[4-chloro-3-(1H-tetrazol-5-yl)phenyl]methyl}thio)-1-(4-fluorophenyl)-1H-imidazol-5-yl]-1-methylethyl}benzenesulfonamide]
100 to 1000 nM,< 100 nM,CC(C)(c1ccc(C(N)=O)c(Cl)c1)c1cnc(SCc2ccc(F)cc2Cl)n1-c1ccc(F)cc1 [2-chloro-4-{1-[2-{[(2-chloro-4-fluorophenyl)methyl]thio}-1-(4-fluorophenyl)-1H-imidazol-5-yl]-1-methylethyl}benzamide]
< 100 nM,100 to 1000 nM,CC(C)(c1ccc(S(N)(=O)=O)c(Cl)c1)c1cnc(SCc2ccc(F)cc2Cl)n1-c1ccc(F)cc1 [2-chloro-4-{1-[2-{[(2-chloro-4-fluorophenyl)methyl]thio}-1-(4-fluorophenyl)-1H-imidazol-5-yl]-1-methylethyl}benzenesulfonamide]
100 to 1000 nM,100 to 1000 nM,CC(C)(c1ccc(C#N)c(Cl)c1)c1cnc(SCc2ccc(F)cc2Cl)n1-c1ccc(F)cc1 [2-chloro-4-{1-[2-{[(2-chloro-4-fluorophenyl)methyl]thio}-1-(4-fluorophenyl)-1H-imidazol-5-yl]-1-methylethyl}benzonitrile]
100 to 1000 nM,100 to 1000 nM,COc1ccc(C(C)(C)c2cnc(SCc3ccc(Cl)c(C(=O)O)c3)n2-c2ccc(F)cc2)cc1Cl [2-chloro-5-({[5-{1-[3-chloro-4-(methyloxy)phenyl]-1-methylethyl}-1-(4-fluorophenyl)-1H-imidazol-2-yl]thio}methyl)benzoic acid]
< 100 nM,< 100 nM,COc1cc(C(C)(C)c2cnc(SCc3cc(S(N)(=O)=O)c(Cl)cc3F)n2-c2ccc(F)cc2)ccc1Cl [2-chloro-5-({[5-{1-[4-chloro-3-(methyloxy)phenyl]-1-methylethyl}-1-(4-fluorophenyl)-1H-imidazol-2-yl]thio}methyl)-4-fluorobenzenesulfonamide]
100 to 1000 nM,100 to 1000 nM,"CC(C)NC(=O)NS(=O)(=O)c1cc(CSc2ncc(C(C)(C)c3ccc(Cl)c(Cl)c3)n2-c2ccc(F)cc2)ccc1Cl [2-chloro-5-[({5-[1-(3,4-dichlorophenyl)-1-methylethyl]-1-(4-fluorophenyl)-1H-imidazol-2-yl}thio)methyl]-N-{[(1-methylethyl)amino]carbonyl}benzenesulfonamide]"
< 100 nM,< 100 nM,"CC(C)(c1ccc(Cl)c(Cl)c1)c1cnc(SCc2ccc(Cl)c(S(N)(=O)=O)c2)n1-c1ccc(F)cc1 [2-chloro-5-[({5-[1-(3,4-dichlorophenyl)-1-methylethyl]-1-(4-fluorophenyl)-1H-imidazol-2-yl}thio)methyl]benzenesulfonamide]"
100 to 1000 nM,100 to 1000 nM,"COc1cc(-n2c(C(C)(C)c3ccc(Cl)c(Cl)c3)cnc2SCc2ccc(F)cc2Cl)ccc1F [2-{[(2-chloro-4-fluorophenyl)methyl]thio}-5-[1-(3,4-dichlorophenyl)-1-methylethyl]-1-[4-fluoro-3-(methyloxy)phenyl]-1H-imidazole]"
< 100 nM,100 to 1000 nM,COc1cc(C(C)(C)c2cnc(SCc3ccc(F)cc3Cl)n2-c2ccc(F)cc2)ccc1Cl [2-{[(2-chloro-4-fluorophenyl)methyl]thio}-5-{1-[4-chloro-3-(methyloxy)phenyl]-1-methylethyl}-1-(4-fluorophenyl)-1H-imidazole]
< 100 nM,100 to 1000 nM,COc1ccc(C(C)(C)c2cnc(SCc3cc(F)ccc3Cl)n2-c2ccc(F)cc2)cc1Cl [2-{[(2-chloro-5-fluorophenyl)methyl]thio}-5-{1-[3-chloro-4-(methyloxy)phenyl]-1-methylethyl}-1-(4-fluorophenyl)-1H-imidazole]
100 to 1000 nM,< 100 nM,CC(C)(c1cccc(S(C)(=O)=O)c1)c1cnc(SCc2c(F)cccc2Cl)n1-c1ccc(F)cc1 [2-{[(2-chloro-6-fluorophenyl)methyl]thio}-1-(4-fluorophenyl)-5-{1-methyl-1-[3-(methylsulfonyl)phenyl]ethyl}-1H-imidazole]
< 100 nM,100 to 1000 nM,COc1ccc(C(C)(C)c2cnc(SCc3c(F)cccc3Cl)n2-c2ccc(F)cc2)cc1 [2-{[(2-chloro-6-fluorophenyl)methyl]thio}-1-(4-fluorophenyl)-5-{1-methyl-1-[4-(methyloxy)phenyl]ethyl}-1H-imidazole]
100 to 1000 nM,100 to 1000 nM,"CC(C)(c1ccc(Cl)c(Cl)c1)c1cnc(SCc2c(F)cccc2Cl)n1-c1ccc(F)cc1F [2-{[(2-chloro-6-fluorophenyl)methyl]thio}-5-[1-(3,4-dichlorophenyl)-1-methylethyl]-1-(2,4-difluorophenyl)-1H-imidazole]"
< 100 nM,100 to 1000 nM,"CC(C)(c1ccc(Cl)c(Cl)c1)c1cnc(SCc2c(F)cccc2Cl)n1-c1ccc(F)c(F)c1 [2-{[(2-chloro-6-fluorophenyl)methyl]thio}-5-[1-(3,4-dichlorophenyl)-1-methylethyl]-1-(3,4-difluorophenyl)-1H-imidazole]"
< 100 nM,100 to 1000 nM,"CC(C)(c1ccc(Cl)c(Cl)c1)c1cnc(SCc2c(F)cccc2Cl)n1-c1ccc(F)cc1 [2-{[(2-chloro-6-fluorophenyl)methyl]thio}-5-[1-(3,4-dichlorophenyl)-1-methylethyl]-1-(4-fluorophenyl)-1H-imidazole]"
< 100 nM,< 100 nM,"COc1cc(-n2c(C(C)(C)c3ccc(Cl)c(Cl)c3)cnc2SCc2c(F)cccc2Cl)ccc1F [2-{[(2-chloro-6-fluorophenyl)methyl]thio}-5-[1-(3,4-dichlorophenyl)-1-methylethyl]-1-[4-fluoro-3-(methyloxy)phenyl]-1H-imidazole]"
< 100 nM,< 100 nM,"COc1c(Cl)cc(C(C)(C)c2cnc(SCc3c(F)cccc3Cl)n2-c2ccc(F)cc2)cc1Cl [2-{[(2-chloro-6-fluorophenyl)methyl]thio}-5-{1-[3,5-dichloro-4-(methyloxy)phenyl]-1-methylethyl}-1-(4-fluorophenyl)-1H-imidazole]"
< 100 nM,< 100 nM,COc1ccc(C(C)(C)c2cnc(SCc3c(F)cccc3Cl)n2-c2ccc(F)cc2)cc1Cl [2-{[(2-chloro-6-fluorophenyl)methyl]thio}-5-{1-[3-chloro-4-(methyloxy)phenyl]-1-methylethyl}-1-(4-fluorophenyl)-1H-imidazole]
< 100 nM,< 100 nM,COc1cc(C(C)(C)c2cnc(SCc3c(F)cccc3Cl)n2-c2ccc(F)cc2)ccc1Cl [2-{[(2-chloro-6-fluorophenyl)methyl]thio}-5-{1-[4-chloro-3-(methyloxy)phenyl]-1-methylethyl}-1-(4-fluorophenyl)-1H-imidazole]
100 to 1000 nM,100 to 1000 nM,COc1cc(C(C)(C)c2c(C)nc(SCc3c(F)cccc3Cl)n2-c2ccc(F)cc2)ccc1Cl [2-{[(2-chloro-6-fluorophenyl)methyl]thio}-5-{1-[4-chloro-3-(methyloxy)phenyl]-1-methylethyl}-1-(4-fluorophenyl)-4-methyl-1H-imidazole]
< 100 nM,< 100 nM,"COc1cc(-n2c(C(C)(C)c3ccc(S(N)(=O)=O)c(Cl)c3)cnc2SCc2c(F)cc(C(=O)NCCS(=O)(=O)O)cc2F)ccc1F [2-{[(4-{[(5-{1-[4-(aminosulfonyl)-3-chlorophenyl]-1-methylethyl}-1-[4-fluoro-3-(methyloxy)phenyl]-1H-imidazol-2-yl)thio]methyl}-3,5-difluorophenyl)carbonyl]amino}ethanesulfonic acid]"
< 100 nM,< 100 nM,COc1cc(-n2c(C(C)(C)c3ccc(S(N)(=O)=O)c(Cl)c3)cnc2SCc2ccc(C(=O)NCCS(=O)(=O)O)cc2F)ccc1F [2-{[(4-{[(5-{1-[4-(aminosulfonyl)-3-chlorophenyl]-1-methylethyl}-1-[4-fluoro-3-(methyloxy)phenyl]-1H-imidazol-2-yl)thio]methyl}-3-fluorophenyl)carbonyl]amino}ethanesulfonic acid]
100 to 1000 nM,100 to 1000 nM,"CC(C)(c1ccc2ccccc2c1)c1cnc(SCc2c(F)cc(C(=O)O)cc2F)n1-c1ccc(F)cc1 [3,5-difluoro-4-({[1-(4-fluorophenyl)-5-(1-methyl-1-naphthalen-2-ylethyl)-1H-imidazol-2-yl]thio}methyl)benzoic acid]"
